Assays:
[1] = biological target: 5-hydroxytryptamine receptor 1D (Homo sapiens, UniProt P28221); test: GPCRScan assay: inhibition of 5-HT1D; set-up: radioligand conc. used [nm] 1.0 – 2.0, parental cells HEKT
[2] = biological target: 5-hydroxytryptamine receptor 2C (Homo sapiens, UniProt P28335); test: GPCRScan assay: inhibition of 5-HT2C; set-up: radioligand conc. used [nm] 1.0 – 2.5, parental cells HEK T
[3] = biological target: Alpha-2B adrenergic receptor (Homo sapiens, UniProt P18089); test: GPCRScan assay: inhibition of Alpha2B; set-up: radioligand conc. used [nm] 1.5 – 2.0, parental cells HEKT
[4] = system: Tyrosine-protein kinase ABL1 (Homo sapiens), P00519 [M351T]; conditions: Compound concentration 1000.0 nM
[5] = system: Tyrosine-protein kinase ABL1 (Homo sapiens), P00519 [Q252H]; conditions: Compound concentration 1000.0 nM
[6] = biological target: Bone morphogenetic protein receptor type-1A (Homo sapiens) (UniProt P36894); conditions: Compound concentration 1000.0 nM
[7] = biological target: Calcium/calmodulin-dependent protein kinase type II subunit alpha (Homo sapiens) (UniProt Q9UQM7); conditions: Compound concentration 1000.0 nM
[8] = biological target: Cyclin-dependent kinase-like 2 (Homo sapiens) (UniProt Q92772); conditions: Compound concentration 1000.0 nM
[9] = biological target: Tyrosine-protein kinase CSK (Homo sapiens) (UniProt P41240); conditions: Compound concentration 1000.0 nM
[10] = biological target: Death-associated protein kinase 3 (Homo sapiens) (UniProt O43293); conditions: Compound concentration 1000.0 nM
[11] = biological target: Dual specificity tyrosine-phosphorylation-regulated kinase 2 (Homo sapiens) (UniProt Q92630); conditions: Compound concentration 1000.0 nM
[12] = system: Epidermal growth factor receptor (Homo sapiens), P00533 [UNDEFINED MUTATION]; conditions: Compound concentration 1000.0 nM
[13] = biological target: Mitogen-activated protein kinase 1 (Homo sapiens) (UniProt P28482); conditions: Compound concentration 1000.0 nM
[14] = biological target: Mitogen-activated protein kinase 4 (Homo sapiens) (UniProt P31152); conditions: Compound concentration 1000.0 nM
[15] = biological target: Mitogen-activated protein kinase 7 (Homo sapiens) (UniProt Q13164); conditions: Compound concentration 1000.0 nM
[16] = biological target: Receptor-type tyrosine-protein kinase FLT3 (Homo sapiens) (UniProt P36888); conditions: Compound concentration 1000.0 nM
[17] = system: eIF-2-alpha kinase GCN2 (Homo sapiens), Q9P2K8 [S808G]; conditions: Compound concentration 1000.0 nM
[18] = biological target: Beta-adrenergic receptor kinase 1 (Homo sapiens) (UniProt P25098); conditions: Compound concentration 1000.0 nM
[19] = biological target: Homeodomain-interacting protein kinase 4 (Homo sapiens) (UniProt Q8NE63); conditions: Compound concentration 1000.0 nM
[20] = biological target: Insulin receptor (Homo sapiens) (UniProt P06213); conditions: Compound concentration 1000.0 nM
[21] = biological target: Mast/stem cell growth factor receptor Kit (Homo sapiens) (UniProt P10721); conditions: Compound concentration 1000.0 nM
[22] = system: Mast/stem cell growth factor receptor Kit (Homo sapiens), P10721 [D816H]; conditions: Compound concentration 1000.0 nM
[23] = biological target: Myosin light chain kinase (Homo sapiens) (UniProt Q32MK0); conditions: Compound concentration 1000.0 nM
[24] = biological target: Macrophage-stimulating protein receptor (Homo sapiens) (UniProt Q04912); conditions: Compound concentration 1000.0 nM
[25] = biological target: Serine/threonine-protein kinase Nek1 (Homo sapiens) (UniProt Q96PY6); conditions: Compound concentration 1000.0 nM
[26] = biological target: Serine/threonine-protein kinase NIM1 (Homo sapiens) (UniProt Q8IY84); conditions: Compound concentration 1000.0 nM
[27] = biological target: Mitogen-activated protein kinase 14 (Homo sapiens) (UniProt Q16539); conditions: Compound concentration 1000.0 nM
[28] = biological target: Phosphorylase b kinase gamma catalytic chain, skeletal muscle/heart isoform (Homo sapiens) (UniProt Q16816); conditions: Compound concentration 1000.0 nM
[29] = biological target: Phosphatidylinositol 4-phosphate 3-kinase C2 domain-containing subunit beta (Homo sapiens) (UniProt O00750); conditions: Compound concentration 1000.0 nM
[30] = biological target: Phosphatidylinositol 4,5-bisphosphate 3-kinase catalytic subunit alpha isoform (Homo sapiens) (UniProt P42336); conditions: Compound concentration 1000.0 nM
[31] = system: Phosphatidylinositol 4,5-bisphosphate 3-kinase catalytic subunit alpha isoform (Homo sapiens), P42336 [C420R]; conditions: Compound concentration 1000.0 nM
[32] = system: Phosphatidylinositol 4,5-bisphosphate 3-kinase catalytic subunit alpha isoform (Homo sapiens), P42336 [E542K]; conditions: Compound concentration 1000.0 nM
[33] = system: Phosphatidylinositol 4,5-bisphosphate 3-kinase catalytic subunit alpha isoform (Homo sapiens), P42336 [I800L]; conditions: Compound concentration 1000.0 nM
[34] = biological target: Phosphatidylinositol 4,5-bisphosphate 3-kinase catalytic subunit beta isoform (Homo sapiens) (UniProt P42338); conditions: Compound concentration 1000.0 nM
[35] = biological target: Protein kinase C iota type (Homo sapiens) (UniProt P41743); conditions: Compound concentration 1000.0 nM
[36] = biological target: cGMP-dependent protein kinase 1 (Homo sapiens) (UniProt Q13976); conditions: Compound concentration 1000.0 nM
[37] = biological target: cAMP-dependent protein kinase catalytic subunit PRKX (Homo sapiens) (UniProt P51817); conditions: Compound concentration 1000.0 nM
[38] = biological target: Ribosomal protein S6 kinase alpha-4 (Homo sapiens) (UniProt O75676); conditions: Compound concentration 1000.0 nM
[39] = biological target: Serine/threonine-protein kinase SIK1 (Homo sapiens) (UniProt P57059); conditions: Compound concentration 1000.0 nM
[40] = biological target: Angiopoietin-1 receptor (Homo sapiens) (UniProt Q02763); conditions: Compound concentration 1000.0 nM
[41] = biological target: High affinity nerve growth factor receptor (Homo sapiens) (UniProt P04629); conditions: Compound concentration 1000.0 nM
[42] = biological target: BDNF/NT-3 growth factors receptor (Homo sapiens) (UniProt Q16620); conditions: Compound concentration 1000.0 nM
[43] = biological target: Non-receptor tyrosine-protein kinase TYK2 (Homo sapiens) (UniProt P29597); conditions: Compound concentration 1000.0 nM
[44] = biological target: Serine/threonine-protein kinase 25 (Homo sapiens) (UniProt O00506); conditions: Compound concentration 1000.0 nM
[45] = biological target: Mitogen-activated protein kinase kinase kinase 19 (Homo sapiens) (UniProt Q56UN5); conditions: Compound concentration 1000.0 nM

Angiopoietin-1 receptor (Homo sapiens), sequence (Q02763 whole entry): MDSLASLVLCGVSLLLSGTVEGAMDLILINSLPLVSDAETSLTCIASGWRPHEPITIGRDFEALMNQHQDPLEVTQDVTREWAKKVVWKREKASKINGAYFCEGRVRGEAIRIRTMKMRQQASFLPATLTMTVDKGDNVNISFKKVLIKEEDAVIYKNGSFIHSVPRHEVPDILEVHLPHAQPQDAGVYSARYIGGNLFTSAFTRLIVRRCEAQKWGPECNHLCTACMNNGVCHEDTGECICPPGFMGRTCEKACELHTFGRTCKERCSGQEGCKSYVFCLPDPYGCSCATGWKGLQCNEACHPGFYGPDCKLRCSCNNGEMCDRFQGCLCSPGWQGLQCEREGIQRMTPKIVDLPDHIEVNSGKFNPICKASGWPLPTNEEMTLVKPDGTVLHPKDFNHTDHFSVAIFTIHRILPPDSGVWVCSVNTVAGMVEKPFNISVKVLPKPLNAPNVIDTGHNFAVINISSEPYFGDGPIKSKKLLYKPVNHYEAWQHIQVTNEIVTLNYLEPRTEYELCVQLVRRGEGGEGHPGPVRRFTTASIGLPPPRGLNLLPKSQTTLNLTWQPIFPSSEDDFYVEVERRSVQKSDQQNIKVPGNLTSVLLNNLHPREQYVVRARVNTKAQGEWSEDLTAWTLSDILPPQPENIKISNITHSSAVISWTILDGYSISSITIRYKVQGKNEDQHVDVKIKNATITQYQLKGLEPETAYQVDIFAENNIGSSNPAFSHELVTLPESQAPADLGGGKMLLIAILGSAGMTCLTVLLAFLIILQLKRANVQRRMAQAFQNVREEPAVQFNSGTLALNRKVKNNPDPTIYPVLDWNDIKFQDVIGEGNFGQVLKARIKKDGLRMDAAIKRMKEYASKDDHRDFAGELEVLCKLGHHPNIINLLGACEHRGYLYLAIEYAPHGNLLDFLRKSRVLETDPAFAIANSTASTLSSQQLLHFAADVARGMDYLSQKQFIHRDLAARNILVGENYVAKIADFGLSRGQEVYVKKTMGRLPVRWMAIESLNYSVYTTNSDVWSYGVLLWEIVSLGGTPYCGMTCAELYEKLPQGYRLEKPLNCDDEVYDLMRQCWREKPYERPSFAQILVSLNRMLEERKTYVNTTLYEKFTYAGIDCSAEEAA
Phosphatidylinositol 4-phosphate 3-kinase C2 domain-containing subunit beta (Homo sapiens), sequence (O00750 whole entry, the tested form may be a part, canonical isoform): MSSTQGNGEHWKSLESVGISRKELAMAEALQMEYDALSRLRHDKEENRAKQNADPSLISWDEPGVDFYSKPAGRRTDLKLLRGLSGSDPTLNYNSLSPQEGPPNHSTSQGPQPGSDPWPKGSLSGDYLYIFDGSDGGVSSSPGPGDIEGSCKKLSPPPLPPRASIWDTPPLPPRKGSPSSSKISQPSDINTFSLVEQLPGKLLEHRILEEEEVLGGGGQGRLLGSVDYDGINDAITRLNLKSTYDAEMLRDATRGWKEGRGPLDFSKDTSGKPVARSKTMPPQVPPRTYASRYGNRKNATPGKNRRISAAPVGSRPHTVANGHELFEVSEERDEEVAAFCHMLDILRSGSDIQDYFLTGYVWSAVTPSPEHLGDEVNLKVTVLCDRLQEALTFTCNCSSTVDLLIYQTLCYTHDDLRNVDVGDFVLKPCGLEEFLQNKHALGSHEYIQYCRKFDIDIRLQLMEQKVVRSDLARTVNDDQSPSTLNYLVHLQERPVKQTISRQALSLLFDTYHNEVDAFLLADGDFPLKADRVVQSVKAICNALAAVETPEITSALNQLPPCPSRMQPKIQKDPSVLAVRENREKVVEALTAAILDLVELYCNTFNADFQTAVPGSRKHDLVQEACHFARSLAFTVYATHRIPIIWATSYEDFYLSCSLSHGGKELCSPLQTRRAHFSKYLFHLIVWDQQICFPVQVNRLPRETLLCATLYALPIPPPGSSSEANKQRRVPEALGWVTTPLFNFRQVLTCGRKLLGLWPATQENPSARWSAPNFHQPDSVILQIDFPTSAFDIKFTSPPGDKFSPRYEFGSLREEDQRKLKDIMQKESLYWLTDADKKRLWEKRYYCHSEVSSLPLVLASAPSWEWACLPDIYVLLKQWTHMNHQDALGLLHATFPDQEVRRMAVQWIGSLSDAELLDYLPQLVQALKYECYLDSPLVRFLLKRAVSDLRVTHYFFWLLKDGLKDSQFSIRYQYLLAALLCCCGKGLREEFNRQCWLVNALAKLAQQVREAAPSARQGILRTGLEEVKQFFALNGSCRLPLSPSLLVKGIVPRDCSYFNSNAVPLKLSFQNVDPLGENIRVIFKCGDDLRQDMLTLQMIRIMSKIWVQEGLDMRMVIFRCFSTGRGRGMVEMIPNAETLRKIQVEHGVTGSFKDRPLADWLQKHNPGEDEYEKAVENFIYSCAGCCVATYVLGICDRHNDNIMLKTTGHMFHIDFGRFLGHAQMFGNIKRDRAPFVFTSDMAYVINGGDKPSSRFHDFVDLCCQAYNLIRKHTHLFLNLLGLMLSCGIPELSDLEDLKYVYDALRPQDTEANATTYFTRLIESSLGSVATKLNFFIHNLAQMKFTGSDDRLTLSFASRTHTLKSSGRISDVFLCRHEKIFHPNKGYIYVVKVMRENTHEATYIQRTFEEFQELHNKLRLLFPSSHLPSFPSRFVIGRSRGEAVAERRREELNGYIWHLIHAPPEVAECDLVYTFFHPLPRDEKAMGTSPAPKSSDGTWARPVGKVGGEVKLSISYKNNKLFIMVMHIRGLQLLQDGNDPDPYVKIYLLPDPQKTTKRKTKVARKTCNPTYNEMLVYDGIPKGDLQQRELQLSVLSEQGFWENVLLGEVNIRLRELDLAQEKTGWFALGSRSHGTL
cGMP-dependent protein kinase 1 (Homo sapiens), sequence (Q13976 whole entry): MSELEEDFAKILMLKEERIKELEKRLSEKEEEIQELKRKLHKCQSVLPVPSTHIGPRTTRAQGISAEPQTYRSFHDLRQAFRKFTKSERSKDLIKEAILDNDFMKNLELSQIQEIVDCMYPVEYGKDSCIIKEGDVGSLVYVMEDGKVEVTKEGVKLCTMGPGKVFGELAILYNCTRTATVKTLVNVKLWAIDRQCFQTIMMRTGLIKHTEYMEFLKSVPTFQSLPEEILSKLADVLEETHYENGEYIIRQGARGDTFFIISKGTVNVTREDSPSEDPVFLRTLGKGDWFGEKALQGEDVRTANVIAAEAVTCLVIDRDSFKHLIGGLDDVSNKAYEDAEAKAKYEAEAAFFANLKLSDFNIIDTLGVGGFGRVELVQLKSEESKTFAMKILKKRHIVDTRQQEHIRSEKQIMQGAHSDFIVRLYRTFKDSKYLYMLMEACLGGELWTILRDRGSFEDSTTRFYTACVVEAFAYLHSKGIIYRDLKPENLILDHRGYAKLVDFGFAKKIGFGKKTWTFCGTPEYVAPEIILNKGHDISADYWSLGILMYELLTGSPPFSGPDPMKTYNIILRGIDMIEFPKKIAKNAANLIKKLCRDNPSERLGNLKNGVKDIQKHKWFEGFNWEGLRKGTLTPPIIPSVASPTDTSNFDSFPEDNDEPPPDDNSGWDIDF
Dual specificity tyrosine-phosphorylation-regulated kinase 2 (Homo sapiens), sequence (Q92630 whole entry): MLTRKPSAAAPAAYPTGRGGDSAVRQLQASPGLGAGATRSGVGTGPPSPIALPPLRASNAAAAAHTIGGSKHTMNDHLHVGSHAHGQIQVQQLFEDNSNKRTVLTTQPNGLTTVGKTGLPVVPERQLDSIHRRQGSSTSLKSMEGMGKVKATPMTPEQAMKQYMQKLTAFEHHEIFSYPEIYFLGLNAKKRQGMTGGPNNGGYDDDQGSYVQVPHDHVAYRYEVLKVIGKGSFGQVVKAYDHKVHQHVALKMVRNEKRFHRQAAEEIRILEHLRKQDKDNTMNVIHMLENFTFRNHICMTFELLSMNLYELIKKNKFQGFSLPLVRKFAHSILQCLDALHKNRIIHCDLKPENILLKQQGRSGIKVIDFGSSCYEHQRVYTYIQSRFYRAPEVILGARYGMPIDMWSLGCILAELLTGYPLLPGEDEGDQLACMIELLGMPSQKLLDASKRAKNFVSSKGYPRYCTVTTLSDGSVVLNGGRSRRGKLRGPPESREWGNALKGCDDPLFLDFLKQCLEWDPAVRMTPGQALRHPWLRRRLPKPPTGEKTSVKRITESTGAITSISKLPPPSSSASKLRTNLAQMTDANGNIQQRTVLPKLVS
Phosphorylase b kinase gamma catalytic chain, skeletal muscle/heart isoform (Homo sapiens), sequence (Q16816 whole entry, looked up, the tested form may be a part, canonical isoform): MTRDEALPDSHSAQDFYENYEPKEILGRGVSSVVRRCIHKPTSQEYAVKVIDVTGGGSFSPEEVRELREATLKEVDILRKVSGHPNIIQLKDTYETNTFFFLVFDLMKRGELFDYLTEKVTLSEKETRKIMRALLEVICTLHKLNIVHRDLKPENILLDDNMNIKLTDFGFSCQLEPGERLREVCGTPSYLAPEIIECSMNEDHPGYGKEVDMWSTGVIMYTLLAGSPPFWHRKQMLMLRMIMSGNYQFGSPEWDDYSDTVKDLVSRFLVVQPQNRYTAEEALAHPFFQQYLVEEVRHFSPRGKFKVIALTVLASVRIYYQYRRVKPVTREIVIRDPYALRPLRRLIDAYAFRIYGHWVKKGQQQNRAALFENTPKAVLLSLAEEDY
Serine/threonine-protein kinase NIM1 (Homo sapiens), sequence (Q8IY84 whole entry): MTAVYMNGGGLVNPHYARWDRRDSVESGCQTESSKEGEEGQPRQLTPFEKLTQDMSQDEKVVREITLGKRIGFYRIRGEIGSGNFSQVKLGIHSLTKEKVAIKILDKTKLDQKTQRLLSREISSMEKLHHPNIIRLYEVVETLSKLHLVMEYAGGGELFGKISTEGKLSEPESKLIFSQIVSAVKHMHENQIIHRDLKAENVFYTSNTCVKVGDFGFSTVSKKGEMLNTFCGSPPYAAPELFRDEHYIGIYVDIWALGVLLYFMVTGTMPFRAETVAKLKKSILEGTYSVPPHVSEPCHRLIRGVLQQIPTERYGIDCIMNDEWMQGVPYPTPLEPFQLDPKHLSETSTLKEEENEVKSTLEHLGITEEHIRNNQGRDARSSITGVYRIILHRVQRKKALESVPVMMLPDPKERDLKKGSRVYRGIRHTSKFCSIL

Compound: CC(C)(C)OC(=O)N1CCCC1CNC1CCC(c2cc(F)ccc2F)(S(=O)(=O)c2ccc(Cl)cc2)CC1 (stereo not given) [GSI-NC]
- Ki [1]: 234 nM
- Ki [2]: 516 nM
- Ki [3]: 879 nM

Compound: O=S(=O)(NC1CCC(c2cc(F)ccc2F)(S(=O)(=O)c2ccc(Cl)cc2)CC1)C(F)(F)F (stereo not given) [MRK-560]
- residual activity [4]: 100%
- residual activity [5]: 84%
- residual activity [6]: 100%
- residual activity [7]: 100%
- residual activity [8]: 100%
- residual activity [9]: 100%
- residual activity [10]: 97%
- residual activity [11]: 100%
- residual activity [12]: 0%
- residual activity [13]: 100%
- residual activity [14]: 95%
- residual activity [15]: 92%
- residual activity [16]: 100%
- residual activity [17]: 100%
- residual activity [18]: 73%
- residual activity [19]: 74%
- residual activity [20]: 95%
- residual activity [21]: 100%
- residual activity [22]: 71%
- residual activity [23]: 86%
- residual activity [24]: 93%
- residual activity [25]: 100%
- residual activity [26]: 80%
- residual activity [27]: 100%
- residual activity [28]: 80%
- residual activity [29]: 100%
- residual activity [30]: 100%
- residual activity [31]: 36%
- residual activity [32]: 100%
- residual activity [33]: 98%
- residual activity [34]: 100%
- residual activity [35]: 100%
- residual activity [36]: 100%
- residual activity [37]: 100%
- residual activity [38]: 100%
- residual activity [39]: 100%
- residual activity [40]: 85%
- residual activity [41]: 76%
- residual activity [42]: 83%
- residual activity [43]: 100%
- residual activity [44]: 100%
- residual activity [45]: 84%
